The text below walks through data of US20230348376A1 (TEIJIN PHARMA LIMITED, priority 2020, published 2023).

SMILES strings stand for the structures. pEC50: −log10 of the molar value.

One assay addresses T1, human VDR (Homo sapiens, UniProt P11473).
T1 sequence (P11473 1-427): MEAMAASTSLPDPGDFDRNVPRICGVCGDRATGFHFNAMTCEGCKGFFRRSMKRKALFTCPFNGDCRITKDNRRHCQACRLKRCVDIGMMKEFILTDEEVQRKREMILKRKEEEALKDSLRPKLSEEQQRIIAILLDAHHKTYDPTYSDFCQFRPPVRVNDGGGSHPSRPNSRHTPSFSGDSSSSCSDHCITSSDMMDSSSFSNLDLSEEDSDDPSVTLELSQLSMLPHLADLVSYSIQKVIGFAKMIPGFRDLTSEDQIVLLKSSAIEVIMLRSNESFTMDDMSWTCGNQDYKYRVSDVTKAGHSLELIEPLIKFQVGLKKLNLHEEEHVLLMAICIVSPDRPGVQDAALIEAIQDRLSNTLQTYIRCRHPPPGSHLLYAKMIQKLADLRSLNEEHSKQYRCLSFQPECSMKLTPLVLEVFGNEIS
T1 sequence (P19793 1-462 partner): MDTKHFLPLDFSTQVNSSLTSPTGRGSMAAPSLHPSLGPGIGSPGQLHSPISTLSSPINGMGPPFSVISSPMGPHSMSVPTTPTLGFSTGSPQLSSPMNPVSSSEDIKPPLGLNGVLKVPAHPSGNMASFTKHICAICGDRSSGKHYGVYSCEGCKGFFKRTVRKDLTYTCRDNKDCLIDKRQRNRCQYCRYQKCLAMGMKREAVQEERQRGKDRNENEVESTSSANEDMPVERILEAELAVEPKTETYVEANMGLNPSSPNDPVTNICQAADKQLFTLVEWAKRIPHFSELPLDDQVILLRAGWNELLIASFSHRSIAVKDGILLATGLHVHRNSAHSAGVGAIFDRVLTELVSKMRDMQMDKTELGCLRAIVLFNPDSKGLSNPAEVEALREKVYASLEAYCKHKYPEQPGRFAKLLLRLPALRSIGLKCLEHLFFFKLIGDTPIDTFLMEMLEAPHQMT
The assay can be described thus: Evaluation of VDR transcription activity in human osteoblasts (HOS cells), luciferase reporter. To be noted: Activity (EC50, VDR transcription activity), HOS cells transfected with human VDR, human RXRα and DR3 luciferase reporter; 21 hours. (A reporter such as luciferase makes a cellular process visible.)

The subject of assay [1] is rat oligodendrocyte progenitor cells. The assay can be described thus: Promotive activity of rat oligodendrocyte progenitor cell differentiation-1 (MBP gene expression, mRNA). Format: cell-based. To be noted: Rattus norvegicus, Oligodendrocyte progenitor cell, 96 h, read-out: promotive activity at T3 base (MBP gene expression; DMSO 0%, T3 100%), 4 days, MBP/β actin mRNA. The method, then:
Regarding vitamin D derivatives, which was confirmed to act on the vitamin D receptor (VDR) in Example 352, the promotive activity of oligodendrocyte progenitor cell (OPC) differentiation was evaluated by MBP gene expression (mRNA).
A forebrain obtained from SD rat (Charles River Japan, 1 day old) was crushed with 70 μm Cell Strainer (Falcon #352350), and a cell suspension was prepared by collecting the cells in oligodendrocyte progenitor cell separation medium (20% FBS/2 mM Glutamax (Gibco #35050-061)/i mM sodium pyruvate (Gibco #11360-070)/1% penicillin-streptomycin (Invitrogen #15140-122)/DMEM (Gibco #11960-044)). The cell suspension was seeded in a poly-D-lysine coated T75 flask (Thermo Fisher Scientific #132704) and cultured for about 2 weeks. After culturing, the flask was shaken using a rotary shaker ([…] #WB-101SRC) for about 1 hour (37° C., 100 rpm), and the supernatant was discarded to remove microglia. Subsequently, oligodendrocyte progenitor cell separation medium was added to the flask, and the mixture was similarly shaken for about 22 hours (37° C., 200 rpm), and the supernatant was collected to prepare oligodendrocyte progenitor cells.
The oligodendrocyte progenitor cell prepared was suspended in a differentiation medium (2% B27 (Thermo Fisher Scientific, Inc. #17504-044)/1% penicillin-streptomycin (Invitrogen Corporation #15140-122)/10 ng/mL CNTF (PeproTech Inc. #AF-450-13)/DMEM (Gibco #11960-044)), and seeded on a 96-well plate coated with poly-L-ornithine (FUJIFILM Wako Pure Chemical Corporation #163-27421) under the condition of 0.65×10^4 cells/well, and on a 384-well plate under the condition of 2×10^3 cells/well using an automatic dispensing system (LABCYTE #Echo555). […] After culturing, the cells seeded on the 96-well plate were subjected to immunostaining against MBP using following methods: fixation (4% paraformaldehyde solution, 30 minutes, room temperature), PBS washing, membrane permeation treatment (0.1% Trion X-100 (SIGMA #X100-100ML)/PBS, 3 minutes, room temperature), blocking (3% BSA (SIGMA #A9647-10G)/PBS, 1 hour, room temperature), primary antibody reaction (MBP antibody (abcam plc #ab40390), 2.5 μg/mL, 4° C., 24 hours), PBS washing, secondary antibody reaction (Alexa488 anti-rabbit IgG (Thermo Fisher Scientific, Inc. #A-11034), 5 μg/mL, room temperature, 1 hour), PBS washing, and nuclear staining (Hoechst33342 (DOJINDO #NU043), 10 μg/mL, room temperature, 5 minutes). Subsequently, images of each well were acquired using a fluorescence microscope (KEYENCE CORPORATION #BZ-X800), the number of MBP-positive cells and Hoechst 33342-positive cells were measured using an image analysis application (KEYENCE CORPORATION #BZ-X800 Analyzer), and then the ratio (the number of MBP-positive cells/the number of Hoechst33342-positive cells) was calculated. The cells seeded on the 384-well plate were subjected to real-time PCR using Cells-to-CT 1-Step TaqMan Kit (Thermo Fisher Scientific, Inc. #A25602) and QuantStudio 12K Flex Real-Time PCR System (Thermo Fisher Scientific, Inc. #4472380). The experiment was performed in accordance with the protocol attached to the kit. MBP (Thermo Fisher Scientific, Inc. #Assay ID Rn00690616_ml) and β actin (Thermo Fisher Scientific, Inc. #Assay ID Rn00667869_ml) were used as primers, and the expression levels of each were measured and the ratio (MBP/β actin) was calculated.

As usually defined, the pEC50 is the negative decadic logarithm of the EC50, by convention in mol/L. A lower pEC50 goes with a high EC50. For `C[C@H](CN1CCCC(O)(C(F)F)C1)[C@H]1CC[C@H]2/C(=C/C=C3C[C@@H](O)C[C@H](O)C3)CCC[C@]12C` (single isomer, unassigned) [Compound C035a], the pEC50 on human VDR is more than 9.00. The activation at 1 µM in assay [1] was not below 20%.

Consider `COC1(C)CCCN(C[C@@H](C)[C@H]2CC[C@H]3/C(=C/C=C4C[C@@H](O)C[C@H](O)C4)CCC[C@]23C)C1` (single isomer, unassigned) [Compound C045a], for which the negative-log EC50 (pEC50) at human VDR was 7.00 to 8.00. The activation at 1 µM in assay [1] is not below 20%.

Take `C=C1C(O)CC(=C/C=C2\CCC[C@]3(C)[C@@H]([C@H](C)CN4CC[C@H](OC(F)(F)F)C4)CC[C@@H]23)C[C@H]1O` (stereo in doubt) [Compound B067, (1R,3S)-5-(2-((1R,3aS,7aR,E)-7a-methyl-1-((S)-1-((S)-3-(trifluoromethoxy)pyrrolidin-1-yl)propan-2-yl)octahydro-4H-inden-4-ylidene)ethylidene)-2-methylenecyclohexane-1,3-diol]: the pEC50 on human VDR is 8.00 to 9.00. Besides, in assay [1], the activation at 1 µM is not below 20%.

`C[C@H](CN1CC[C@@H](OC(F)(F)F)C1)[C@H]1CC[C@H]2/C(=C/C=C3CC(O)C[C@H](O)C3)CCC[C@]12C` (stereo in doubt) [Compound B070, (1R,3S)-5-(2-((1R,3aS,7aR,E)-7a-methyl-1-((S)-1-((R)-3-(trifluoromethoxy)pyrrolidin-1-yl)propan-2-yl)octahydro-4H-inden-4-ylidene)ethylidene)cyclohexane-1,3-diol] showed a pEC50 at human VDR of 7.00 to 8.00. Moreover, the activation at 1 µM in assay [1] was not below 20%.

Consider `C=C1C(O)CC(=C/C=C2\CCC[C@]3(C)[C@@H]([C@H](C)CN4CC[C@](C)(O)C4)CC[C@@H]23)C[C@H]1O` (stereo in doubt) [Compound B073, (1R,3S)-5-(2-((1R,3aS,7aR,E)-1-((S)-1-((S)-3-hydroxy-3-methylpyrrolidin-1-yl)propan-2-yl)-7a-methyloctahydro-4H-inden-4-ylidene)ethylidene)-2-methylenecyclohexane-1,3-diol], for which the pEC50 at human VDR was 8.00 to 9.00. The activation at 1 µM in assay [1] was not below 20%.

With `C=C1[C@H](O)CC(=C/C=C2\CCC[C@]3(C)[C@@H]([C@H](C)CN4CC(CC(F)F)C4)CC[C@@H]23)C[C@H]1O` [Compound A019, (1R,3R)-5-(2-((1R,3aS,7aR,E)-1-((S)-1-(3-(2,2-difluoroethyl)azetidin-1-yl)propan-2-yl)-7a-methyloctahydro-4H-inden-4-ylidene)ethylidene)-2-methylenecyclohexane-1,3-diol], on human VDR, the negative-log EC50 (pEC50) is 7.00 to 8.00. In addition, the activation at 1 µM in assay [1] was not below 20%.

On human VDR, `C=C1[C@H](O)CC(=C/C=C2\CCC[C@]3(C)[C@@H]([C@H](C)CN4CC[C@H](C)C4)CC[C@@H]23)C[C@H]1O` [Compound B002, (1R,3R)-5-(2-((1R,3aS,7aR,E)-7a-methyl-1-((S)-1-((S)-3-methylpyrrolidin-1-yl)propan-2-yl)octahydro-4H-inden-4-ylidene)ethylidene)-2-methylenecyclohexane-1,3-diol] had a pEC50 of 7.00 to 8.00. Further, the activation at 1 µM in assay [1] was not below 20%.

With `C[C@@H]1CCN(C[C@@H](C)[C@H]2CC[C@H]3/C(=C/C=C4C[C@@H](O)C[C@H](O)C4)CCC[C@]23C)C1` [Compound B004, (1R,3R)-5-(2-((1R,3aS,7aR,E)-7a-methyl-1-((S)-1-((R)-3-methylpyrrolidin-1-yl)propan-2-yl)octahydro-4H-inden-4-ylidene)ethylidene)cyclohexane-1,3-diol], the pEC50 on human VDR is 8.00 to 9.00. The activation at 1 µM in assay [1] was not below 20%.

For `C=C1/C(=C\C=C2/CCC[C@]3(C)[C@@H]([C@H](C)CN4CC[C@H](OC(F)F)C4)CC[C@@H]23)C[C@@H](O)C[C@@H]1O` [Compound B047, (1R,3S,Z)-5-(2-((1R,3aS,7aR,E)-1-((S)-1-((S)-3-(difluoromethoxy)pyrrolidin-1-yl)propan-2-yl)-7a-methyloctahydro-4H-inden-4-ylidene)ethylidene)-4-methylenecyclohexane-1,3-diol], the pEC50 at human VDR was 7.00 to 8.00. In addition, in assay [1], the activation at 1 µM was not below 20%.

On human VDR, `C=C1/C(=C\C=C2/CCC[C@]3(C)[C@@H]([C@H](C)CN4CC[C@@H](OC(F)F)C4)CC[C@@H]23)C[C@@H](O)C[C@@H]1O` [Compound B048, (1R,3S,Z)-5-(2-((1R,3aS,7aR,E)-1-((S)-1-((R)-3-(difluoromethoxy)pyrrolidin-1-yl)propan-2-yl)-7a-methyloctahydro-4H-inden-4-ylidene)ethylidene)-4-methylenecyclohexane-1,3-diol] had a negative-log EC50 (pEC50) of 7.00 to 8.00. Further, the activation at 1 µM in assay [1] was not below 20%.

`C=C1/C(=C\C=C2/CCC[C@]3(C)[C@@H]([C@H](C)CN4CC[C@H](CCC(F)F)C4)CC[C@@H]23)C[C@@H](O)C[C@@H]1O` [Compound B059, (1R,3S,Z)-5-(2-((1R,3aS,7aR,E)-1-((S)-1-((S)-3-(3,3-difluoropropyl)pyrrolidin-1-yl)propan-2-yl)-7a-methyloctahydro-4H-inden-4-ylidene)ethylidene)-4-methylenecyclohexane-1,3-diol] gave a negative-log EC50 (pEC50) at human VDR of 6.00 to 7.00. In addition, in assay [1], the activation at 1 µM is not below 20%.

As to `C=C1/C(=C\C=C2/CCC[C@]3(C)[C@@H]([C@H](C)CCN4CCO[C@@H](C(F)F)C4)CC[C@@H]23)C[C@@H](O)C[C@@H]1O` [Compound D037, (1R,3 S,Z)-5-(2-((1R,3aS,7aR,E)-1-((R)-4-((R)-2-(difluoromethyl)morpholino)butan-2-yl)-7a-methyloctahydro-4H-inden-4-ylidene)ethylidene)-4-methylenecyclohexane-1,3-diol], in assay [1], the activation at 1 µM was not below 20%.

For `C=C1[C@H](O)CC(=C/C=C2\CCC[C@]3(C)[C@@H]([C@H](C)CCN4C[C@@H](C)OC[C@@H]4C)CC[C@@H]23)C[C@H]1O` [Compound D038, (1R,3R)-5-(2-((1R,3aS,7aR,E)-1-((R)-4-((2R,5S)-2,5-dimethylmorpholino)butan-2-yl)-7a-methyloctahydro-4H-inden-4-ylidene)ethylidene)-2-methylenecyclohexane-1,3-diol], the activation at 1 µM in assay [1] is not below 20%.
